Converted amounts (≈) assume the structure as drawn. Where two headings read alike, the source gives them in different places.
Key:
[1] = system: Escherichia coli MC4100 harboring the IMP4213; assay: MIC, broth micro-dilution technique (CLSI); type: cell-based; conditions: 35° C., 22 hours; for MIC: Escherichia coli, 22 h, read-out: MIC (μg/mL) E. coli, Table 1 protocol: serial 2-fold dilutions starting from 64 μg/ml; for MIC (μg/mL) E. coli: Table 1 protocol: serial 2-fold dilutions starting from 64 μg/ml
Experimental: (§1) In vitro antimicrobial activity of each compound was determined by measuring minimal inhibitor concentrations (MICs) using the broth micro-dilution technique as approved by the Clinical and Laboratory Standards Institute (CLSI) (Methods for Dilution Antimicrobial Susceptibility Tests for Bacteria that Grow Aerobically; Approved Standard—Eighth Edition. CLSI document M07-A8. Wayne, Pa.: Clinical and Laboratory Standards; 2009). Antibacterial activity was measured against three strains of bacteria: a Methicillin Resistant Staphylococcus aureus strain USA 300 (NRS384); a MRSA COL (NRS100), another Methicillin Resistant Staphylococcus aureus strain; and a strain of Escherichia coli MC4100 harboring the IMP4213, which results in increased outer-membrane permeability (B Martin and Silhavy T. Imp/OstA is required for cell envelope biogenesis in Escherichia coli. (2002) Molecular Microbiology, 45(5), 1289-1302). Cells were inoculated onto plates of Trypyticase Soy Agar or Luria Agar respectively and grown at 35° C. for 20 hours. Inocula suspensions were prepared by scraping cells into 1 ml of testing media (cation adjusted Mueller Hinton Broth supplemented with 0.002% v/v Tween-80) and diluting to a final OD600 nm of 0.01.
(§2) Test compounds were prepared in DMSO at a concentration of 10 mg/ml. These compound stocks were diluted into testing media at a concentration of 64 μg/ml and serial 2-fold dilutions were made in the same media, in 96-well U bottom microtiter dishes, for a total of 10 compound concentrations (Table 1). In modified protocols (Table 2), compound stocks were diluted into testing media at a concentration of 4 μg/mL and serial 2-fold dilutions were made in the same media, in 96-well U bottom microtiter dishes, for a total of 10 compound concentrations. Inocula suspensions were added to the 2-fold serial dilutions of test compounds to a final density of OD OD600 nm of 0.0005 and incubated at 35° C. for 22 hours. […] The results from the protocol starting from a concentration of 64 µg/mL are listed in Table 1 and the results from the modified protocol are shown in Table 2.

[2] = system: Methicillin Resistant Staphylococcus aureus strain USA 300 (NRS384); assay: MIC, broth micro-dilution technique (CLSI); type: cell-based; conditions: for MIC: Staphylococcus aureus, 22 h, read-out: MIC (μg/mL) S. aureus
Experimental: as §1, §2

[3] = Table 1 protocol: serial 2-fold dilutions starting from 64 μg/ml, 35° C., 22 hours

Row | Structure (SMILES) | MIC [1] [µg/mL] | MIC [2] [µg/mL] | MIC (μg/mL) E. coli [1] [µg/mL] | MIC (μg/mL) S. aureus [2, 3] [µg/mL] | MIC [2, 3] [µg/mL]
1 | CCCCCCCC(=O)NCCC(=O)N[C@@H](CCCCN)C(=O)N(C)[C@@H]1C(=O)N[C@@H](C)C(=O)N[C@H](C(=O)N[C@@H](C)C(=O)C2CO2)Cc2ccc(O)c(c2)-c2cc1ccc2O (some centres unmarked) [Compound 101] | > 64 | 64 (≈ 76.6 µM) | – | – | –
2 | CCCCCCCC(=O)NCCC(=O)N[C@@H](CCCCN)C(=O)N(C)[C@@H]1C(=O)N[C@@H](C)C(=O)N[C@H](C(=O)N[C@@H](C)C(=O)C2CO2)Cc2ccc(O)c(c2)-c2cc1ccc2O (some centres unmarked) [Compound 102] | – | – | >64 | 64 (≈ 76.6 µM) | –
3 | CCCCCCCC(=O)N[C@@H](CCCCN)C(=O)N(C)[C@@H]1C(=O)N[C@@H](C)C(=O)N[C@H](C(=O)N[C@@H](C)C(=O)C2CO2)Cc2ccc(O)c(c2)-c2cc1ccc2O (some centres unmarked) [Compound 103] | 23 (≈ 30.1 µM) | – | – | – | 45 (≈ 58.8 µM)
4 | CC1OC1C(=O)[C@H](C)NC(=O)[C@@H]1Cc2ccc(O)c(c2)-c2cc(ccc2O)[C@H](N(C)C(=O)[C@H](CCCCN)NC(=O)c2ccc(-c3ccc(Cl)cc3)cc2)C(=O)N[C@@H](C)C(=O)N1 (some centres unmarked) [Compound 105] | 8 (≈ 9.22 µM) | – | – | – | 4 (≈ 4.61 µM)
5 | CC1OC1C(=O)[C@H](C)NC(=O)[C@@H]1Cc2ccc(O)c(c2)-c2cc(ccc2O)[C@H](N(C)C(=O)[C@H](CCCCN)NC(=O)c2ccc(-c3ccc(Cl)cc3)cc2)C(=O)N[C@@H](C)C(=O)N1 (some centres unmarked) [Compound 106] | – | – | 11 (≈ 12.7 µM) | 5.7 (≈ 6.57 µM) | –
6 | CCCCCCCC(=O)NCCC(=O)N[C@@H](CCCCN)C(=O)N(C)[C@@H]1C(=O)N[C@@H](C)C(=O)N[C@H](C(=O)N[C@@H](C)C(=O)CCl)Cc2ccc(O)c(c2)-c2cc1ccc2O [Compound 107] | > 64 | 64 (≈ 76 µM) | – | – | –
7 | C[C@H](NC(=O)[C@@H]1Cc2ccc(O)c(c2)-c2cc(ccc2O)[C@H](N(C)C(=O)[C@H](CCCCN)NC(=O)c2ccc(-c3ccc(Cl)cc3)cc2)C(=O)N[C@@H](C)C(=O)N1)C(=O)CCl [Compound 108] | 8 (≈ 9.3 µM) | 4 (≈ 4.65 µM) | – | – | –
8 | C[C@H](NC(=O)[C@@H]1Cc2ccc(O)c(c2)-c2cc(ccc2O)[C@H](N(C)C(=O)[C@H](CCCCN)NC(=O)c2ccc(-c3ccc(Cl)cc3)cc2)C(=O)N[C@@H](C)C(=O)N1)C(=O)COC(=O)c1ncccn1 [Compound 122] | 32 (≈ 33.8 µM) | 1.4 (≈ 1.48 µM) | – | – | –
9 | CC(=O)OCC(=O)[C@H](C)NC(=O)[C@@H]1Cc2ccc(O)c(c2)-c2cc(ccc2O)[C@H](N(C)C(=O)[C@H](CCCCN)NC(=O)c2ccc(-c3ccc(Cl)cc3)cc2)C(=O)N[C@@H](C)C(=O)N1 [Compound 123] | 32 (≈ 36.2 µM) | 3.2 (≈ 3.62 µM) | – | – | –
10 | COC(=O)[C@@H]1CCCN1CC(=O)[C@H](C)NC(=O)[C@@H]1Cc2ccc(O)c(c2)-c2cc(ccc2O)[C@H](N(C)C(=O)[C@H](CCCCN)NC(=O)c2ccc(-c3ccc(Cl)cc3)cc2)C(=O)N[C@@H](C)C(=O)N1 [Compound 126] | > 64 | 32 (≈ 33.6 µM) | – | – | –
11 | CC[C@H](NC(=O)[C@@H]1Cc2ccc(O)c(c2)-c2cc(ccc2O)[C@H](N(C)C(=O)[C@H](CCCCN)NC(=O)c2ccc(-c3ccc(Cl)cc3)cc2)C(=O)N[C@@H](C)C(=O)N1)C(C)=O [Compound 127] | 64 (≈ 76.2 µM) | > 64 | – | – | –
12 | C[C@H](NC(=O)[C@@H]1Cc2ccc(O)c(c2)-c2cc(ccc2O)[C@H](N(C)C(=O)[C@H](CCCCN)NC(=O)c2ccc(-c3ccc(Cl)cc3)cc2)C(=O)N[C@@H](C)C(=O)N1)C(=O)/C=C/c1c[nH]cn1 [Compound 131] | > 64 | – | – | – | > 64
13 | C[C@H](NC(=O)[C@@H]1Cc2ccc(O)c(c2)-c2cc(ccc2O)[C@H](N(C)C(=O)[C@H](CCCCN)NC(=O)c2ccc(-c3ccc(Cl)cc3)cc2)C(=O)N[C@@H](C)C(=O)N1)C(=O)CS(N)(=O)=O [Compound 143] | 51 (≈ 56.4 µM) | 6.3 (≈ 6.97 µM) | – | – | –
14 | C[C@@H]1NC(=O)[C@@H](N(C)C(=O)[C@H](CCCCN)NC(=O)c2ccc(-c3ccc(Cl)cc3)cc2)c2ccc(O)c(c2)-c2cc(ccc2O)C[C@@H](C(=O)NCC(=O)CC2CCNC2=O)NC1=O (some centres unmarked) [Compound 150] | – | – | 8 (≈ 8.94 µM) | – | > 64
15 | C[C@@H]1NC(=O)[C@@H](N(C)C(=O)[C@H](CCCCN)NC(=O)c2ccc(-c3ccc(Cl)cc3)cc2)c2ccc(O)c(c2)-c2cc(ccc2O)C[C@@H](C(=O)NCC(=O)CC2CCNC2=O)NC1=O (some centres unmarked) [Compound 151] | – | – | 32 (≈ 35.8 µM) | >64 | –
16 | CCCCCCCC(=O)NCCC(=O)N[C@@H](CCCCN)C(=O)N(C)[C@@H]1C(=O)N[C@@H](C)C(=O)N[C@H](CO)Cc2ccc(O)c(c2)-c2cc1ccc2O [Compound 153] | – | – | – | – | 130 (≈ 179 µM)
17 | CC(O)[C@@H]1Cc2ccc(O)c(c2)-c2cc(ccc2O)[C@H](N(C)C(=O)[C@H](CCCCN)NC(=O)c2ccc(-c3ccc(Cl)cc3)cc2)C(=O)N[C@@H](C)C(=O)N1 (some centres unmarked) [Compound 154] | 64 (≈ 84.6 µM) | 64 (≈ 84.6 µM) | – | – | –
18 | C[C@@H]1NC(=O)[C@@H](N(C)C(=O)[C@H](CCCCN)NC(=O)c2ccc(-c3ccc(Cl)cc3)cc2)c2ccc(O)c(c2)-c2cc(ccc2O)C[C@@H](C(=O)N[C@@H](C)C(=O)N2CCCC2)NC1=O [Compound 156] | 51 (≈ 57.9 µM) | > 64 | – | – | –
19 | C[C@@H]1NC(=O)[C@@H](N(C)C(=O)[C@H](CCCCN)NC(=O)c2ccc(-c3ccc(Cl)cc3)cc2)c2ccc(O)c(c2)-c2cc(ccc2O)C[C@@H](C(=O)N[C@@H](C)C(=O)N2CCC[C@H]2CO)NC1=O [Compound 157] | 45 (≈ 49.4 µM) | > 64 | – | – | –
20 | C[C@@H]1NC(=O)[C@@H](N(C)C(=O)[C@H](CCCCN)NC(=O)c2ccc(-c3ccc(Cl)cc3)cc2)c2cc(Br)c(O)c(c2)-c2cc(cc(Br)c2O)C[C@@H](C(=O)O)NC1=O [Compound 164] | 8 (≈ 8.75 µM) | 32 (≈ 35 µM) | – | – | –
21 | C[C@@H]1NC(=O)[C@@H](N(C)C(=O)[C@H](CCCCN)NC(=O)c2ccc(-c3ccc(Cl)cc3)cc2)c2ccc(O)c(c2)-c2cc(cc(Br)c2O)C[C@@H](C(=O)O)NC1=O [Compound 165] | 11 (≈ 13.2 µM) | 45 (≈ 53.9 µM) | – | – | –
22 | C[C@@H]1NC(=O)[C@@H](N(C)C(=O)[C@H](CCCCN)NC(=O)c2ccc(-c3ccc(Cl)cc3)cc2)c2ccc(O)c(c2)-c2cc(ccc2O)C[C@@H](C(=O)N[C@@H](C)C(=O)N2CC[C@H](O)[C@H]2C(N)=O)NC1=O [Compound 168] | 32 (≈ 34.1 µM) | – | – | – | 5.7 (≈ 6.07 µM)
23 | C[C@@H]1NC(=O)[C@@H](N(C)C(=O)[C@H](CCCCN)NC(=O)c2ccc(-c3ccc(Cl)cc3)cc2)c2ccc(O)c(c2)-c2cc(ccc2O)C[C@@H](C(=O)N[C@@H](C)C(=O)N2C[C@H](O)C[C@H]2C(N)=O)NC1=O [Compound 169] | 64 (≈ 68.1 µM) | – | – | – | 45 (≈ 47.9 µM)
24 | C[C@@H]1NC(=O)[C@@H](N(C)C(=O)[C@H](CCCCN)NC(=O)c2ccc(-c3ccc(Cl)cc3)cc2)c2ccc(O)c(c2)-c2cc(ccc2O)C[C@@H](C(=O)N[C@@H](C)C(=O)N2C[C@H]3C[C@H]3[C@H]2C(N)=O)NC1=O [Compound 170] | 64 (≈ 68.4 µM) | – | – | – | 45 (≈ 48.1 µM)
25 | C[C@@H]1NC(=O)[C@@H](N(C)C(=O)[C@H](CCCCN)NC(=O)c2ccc(-c3ccc(Cl)cc3)cc2)c2ccc(O)c(c2)-c2cc(ccc2O)C[C@@H](C(=O)N[C@@H](C)C(=O)N2CC[C@H]2C(N)=O)NC1=O [Compound 171] | 64 (≈ 70.4 µM) | – | – | – | 20 (≈ 22 µM)
26 | C[C@@H]1NC(=O)[C@@H](N(C)C(=O)[C@H](CCCCN)NC(=O)c2ccc(-c3ccc(Cl)cc3)cc2)c2ccc(O)c(c2)-c2cc(ccc2O)C[C@@H](C(=O)N[C@@H](C)C(=O)N2C[C@@H](F)C[C@H]2C(N)=O)NC1=O [Compound 172] | 64 (≈ 68 µM) | – | – | – | 16 (≈ 17 µM)
27 | C[C@@H]1NC(=O)[C@@H](N(C)C(=O)[C@H](CCCCN)NC(=O)c2ccc(-c3ccc(Cl)cc3)cc2)c2ccc(O)c(c2)-c2cc(ccc2O)C[C@@H](C(=O)N[C@@H](C)C(=O)N2CCCC[C@H]2C(N)=O)NC1=O [Compound 173] | 32 (≈ 34.1 µM) | – | – | – | 64 (≈ 68.3 µM)
28 | CCCCc1ccc(-c2ccc(C(=O)NC[C@@H](C)C(=O)N[C@@H](CCCCN)C(=O)N(C)[C@@H]3C(=O)N[C@@H](C)C(=O)N[C@H](C(=O)N[C@@H](C)C(=O)N4CCC[C@H]4C(N)=O)Cc4ccc(O)c(c4)-c4cc3ccc4OC(=O)OCC(C)C)cc2)cc1 [Compound 184] | – | 2 (≈ 1.77 µM) | – | – | –
29 | CCCCc1ccc(-c2ccc(C(=O)N[C@@H](CN)C(=O)N(C)[C@@H]3C(=O)N[C@@H](C)C(=O)N[C@H](C(=O)O)Cc4ccc(OCCN)c(c4)-c4cc3ccc4OCCN)cc2)cc1 [Compound 292] | 0.063 (≈ 0.0766 µM) | – | – | – | –
30 | CCCCCCCCCCCCCC(=O)N[C@@H](CN)C(=O)N(C)[C@@H]1C(=O)N[C@@H](C)C(=O)N[C@H](C(=O)N[C@@H](C)B2O[C@@H]3C[C@@H]4C[C@@H](C4(C)C)[C@]3(C)O2)Cc2ccc(OCCN)c(c2)-c2cc1ccc2OCCN [Compound 318] | 0.063 (≈ 0.0629 µM) | – | – | – | –

Reference: patent US10392422B2, “Macrocyclic broad spectrum antibiotics” (priority 2014, dated 2019)
